Reference: article PMC10302047, “Structure–Activity Relationship Studies of Indolglyoxyl-Polyamine Conjugates as Antimicrobials and Antibiotic Potentiators” (Pharmaceuticals, 2023)
Values after ≈ are worked out from the molar mass of the structure shown. Like-named read-outs stand apart in the source and are kept apart here. Marks after values point to notes of the source that are not given here.

Assays:
E. coli ATCC 25922 [1] = test system: E. coli ATCC 25922; design: method as in Cadelis et al. [16]; settings: ref Cadelis et al. [16]; cited from earlier work
P. aeruginosa ATCC 27853 [2] = settings: doxycycline at 2 µg/mL (4.5 µM), P. aeruginosa ATCC 27853; ref Cadelis et al. [16]; cited from earlier work
S. aureus ATCC 25923 [3] = settings: S. aureus ATCC 25923; ref Cadelis et al. [16]; cited from earlier work
human red blood cells = test: Hemolytic assay; format: cell-based; settings: mean (n = 2)
Procedure: Hemolysis assays were conducted according to previously reported protocols.

MRSA ATCC 43300 = test: Antimicrobial susceptibility (MIC), MRSA; format: cell-based; settings: Staphylococcus aureus; MRSA ATCC 43300; mean (n = 2); read-out: MIC MRSA
Procedure: (§1) The susceptibility of bacterial strains S. aureus (ATCC 25923), E. coli (ATCC 25922) and P. aeruginosa (ATCC 27853) to antibiotics and compounds was determined according to previously reported protocols. Additional antimicrobial evaluation against MRSA (ATCC 43300) and C. albicans (ATCC 90028) was undertaken at the Community for Open Antimicrobial Drug Discovery at The University of Queensland (Australia) according to their standard protocols as reported previously.

C. albicans ATCC 90028 [4] = test system: C. albicans ATCC 90028; design: method as in Cadelis et al. [16]; settings: ref Cadelis et al. [16]; cited from earlier work
[5] = test system: HEK293 (human embryonic kidney cells); settings: HEK293; ref Cadelis et al. [16]; read-out: Cyto. IC50 (concentration of compound at 50% cytotoxicity); cited from earlier work
P. aeruginosa ATCC 27853 [6] = test system: P. aeruginosa ATCC 27853; design: method as in Cadelis et al. [16]; settings: ref Cadelis et al. [16]; cited from earlier work
P. aeruginosa ATCC 27853 [7] = test: Antibiotic potentiation (MIC of antibiotics in the presence of synergizing compounds), P. aeruginosa; format: cell-based, Pseudomonas aeruginosa; settings: concentration required to restore doxycycline activity at 2 µg/mL (4.5 µM) against P. aeruginosa ATCC 27853
E. coli ATCC 25922 [8] = test: Antimicrobial susceptibility (MIC), E. coli; format: cell-based; settings: Escherichia coli, ATCC25922, mean (n = 3)
Procedure: as §1

P. aeruginosa ATCC 27853 [9] = test: Antimicrobial susceptibility (MIC), P. aeruginosa; format: cell-based; settings: Pseudomonas aeruginosa, ATCC27853, mean (n = 3), read-out: MIC P. a
Procedure: as §1

[10] = Cytotoxicity assay HEK293; format: cell-based, human; settings: human, HEK293 cells, mean (n = 2), read-out: Cyto. IC50 (concentration of compound at 50% cytotoxicity)
Procedure: Cytotoxicity assays were conducted according to previously reported protocols.

C. albicans ATCC 90028 [11] = test: Antifungal susceptibility (MIC), C. albicans; format: cell-based; settings: Candida albicans, ATCC90028, mean (n = 2)
Procedure: as §1

S. aureus ATCC 25923 [12] = test: Antimicrobial susceptibility (MIC), S. aureus; format: cell-based, Staphylococcus aureus; settings: Staphylococcus aureus, ATCC25923; S. aureus ATCC 25923; mean (n = 3)
Procedure: as §1

| SMILES | MIC E. c (E. coli ATCC 25922 [1]) | Conc (µM) for Potentiation of doxycycline (P. aeruginosa ATCC 27853 [2]) | MIC S. a (S. aureus ATCC 25923 [3]) | Hem. HC10 (concentration of compound at 10% hemolytic activity) (human red blood cells) | MIC (MRSA ATCC 43300) | MIC C. a (C. albicans ATCC 90028 [4]) | IC50 [5] | MIC P. a (P. aeruginosa ATCC 27853 [6]) | Conc (µM) for Potentiation of doxycycline (P. aeruginosa ATCC 27853 [7]) | MIC (E. coli ATCC 25922 [8]) | MIC (P. aeruginosa ATCC 27853 [9]) | IC50 [10] | MIC (C. albicans ATCC 90028 [11]) | MIC (S. aureus ATCC 25923 [12]) |
| --- | --- | --- | --- | --- | --- | --- | --- | --- | --- | --- | --- | --- | --- | --- |
| Cc1ccc2[nH]cc(C(=O)C(=O)NCCCNCCCCNCCCNC(=O)C(=O)c3c[nH]c4ccc(C)cc34)c2c1 [Compound 5] | 200 ^h µM | 6.25 ^b µM | 25 ^h µM | >40 µM | 20 µM (≈ 11.5 µg/mL) | >40.0 ^h µM | > 40 µM | 100 ^h µM | – | – | – | – | – | – |
| O=C(NCCCNCCCCNCCCNC(=O)C(=O)c1c[nH]c2ccc(Br)cc12)C(=O)c1c[nH]c2ccc(Br)cc12 [Compound 3] | 25 ^h µM | 3.125 ^b µM | 3.125 ^h µM | >34 µM | 4.32 µM (≈ 3.03 µg/mL) | >34.4 ^h µM | 14 µM | 50 ^h µM | – | – | – | – | – | – |
| O=C(NCCCNCCCCNCCCNC(=O)C(=O)c1c[nH]c2c(F)cccc12)C(=O)c1c[nH]c2c(F)cccc12 [Compound 6] | 200 ^h µM | 3.125 ^b µM | 25 ^h µM | >40 µM | 19.8 µM (≈ 11.5 µg/mL) | >39.6 ^h µM | 19 µM | 200 ^h µM | – | – | – | – | – | – |
| Cc1cccc2c(C(=O)C(=O)NCCCNCCCCNCCCNC(=O)C(=O)c3c[nH]c4c(C)cccc34)c[nH]c12 [Compound 8] | >200 ^h µM | 6.25 ^b µM | 25 ^h µM | >40 µM | 20 µM (≈ 11.5 µg/mL) | >40.0 ^h µM | > 40 µM | >200 ^h µM | – | – | – | – | – | – |
| COc1cccc2c(C(=O)C(=O)NCCCNCCCCCCNCCCNC(=O)C(=O)c3c[nH]c4c(OC)cccc34)c[nH]c12.O=C(O)C(F)(F)F.O=C(O)C(F)(F)F [Compound 22a, N^1,N^6-Bis(3-(2-(7-methoxy-1H-indol-3-yl)-2-oxoacetamido)propyl)hexane-1,6-diaminium 2,2,2-trifluoroacetate] | – | – | – | >37 µM | > 37 µM | – | – | – | 100 µM | 400 µM | 800 µM | > 37 µM | > 37 µM | 50 µM |
| O=C(NCCCNCCCCCCCCCCNCCCNC(=O)C(=O)c1c[nH]c2ccc(Br)cc12)C(=O)c1c[nH]c2ccc(Br)cc12.O=C(O)C(F)(F)F.O=C(O)C(F)(F)F [Compound 18d, N^1,N^10-Bis(3-(2-(5-bromo-1H-indol-3-yl)-2-oxoacetamido)propyl)decane-1,10-diaminium 2,2,2-trifluoroacetate] | – | – | – | >32 µM | 7.88 µM | – | – | – | 25 µM | 98 µM | 200 µM | 16 µM | 32 µM | 6.16 µM |
| O=C(NCCCNCCCCCCCNCCCNC(=O)C(=O)c1c[nH]c2ccc(Br)cc12)C(=O)c1c[nH]c2ccc(Br)cc12.O=C(O)C(F)(F)F.O=C(O)C(F)(F)F [Compound 18b, N^1,N^7-Bis(3-(2-(5-bromo-1H-indol-3-yl)-2-oxoacetamido)propyl)heptane-1,7-diaminium 2,2,2-trifluoroacetate] | – | – | – | >33 µM | 4.1 µM | – | – | – | 12.9 µM | 51 µM | 51 µM | 13 µM | 16 µM | 6.4 µM |
| COc1ccc2[nH]cc(C(=O)C(=O)NCCCNCCCCCCCCCCNCCCNC(=O)C(=O)c3c[nH]c4ccc(OC)cc34)c2c1.O=C(O)C(F)(F)F.O=C(O)C(F)(F)F [Compound 19d, N^1,N^10-Bis(3-(2-(5-methoxy-1H-indol-3-yl)-2-oxoacetamido)propyl)decane-1,10-diaminium 2,2,2-trifluoroacetate] | – | – | – | >35 µM | 17.4 µM | – | – | – | >200 µM | 50 µM | > 200 µM | 6.8 µM | 35 µM | 12.5 µM |
| COc1ccc2[nH]cc(C(=O)C(=O)NCCCNCCCCCCCCCCCCNCCCNC(=O)C(=O)c3c[nH]c4ccc(OC)cc34)c2c1 [Compound 19e] | – | – | – | >34 µM | 34 µM (≈ 24.4 µg/mL) | – | – | – | >200 µM | 100 µM (≈ 71.7 µg/mL) | > 200 µM | 8.6 µM | 34 µM (≈ 24.4 µg/mL) | 12.5 µM (≈ 8.96 µg/mL) |
| O=C(NCCCNCCCCCCCCCCCCNCCCNC(=O)C(=O)c1c[nH]c2c(F)cccc12)C(=O)c1c[nH]c2c(F)cccc12.O=C(O)C(F)(F)F.O=C(O)C(F)(F)F [Compound 21e, N^1,N^12-Bis(3-(2-(7-fluoro-1H-indol-3-yl)-2-oxoacetamido)propyl)dodecane-1,12-diaminium 2,2,2-trifluoroacetate] | – | – | – | >35 µM | 4.34 µM | – | – | – | >200 µM | > 220 µM | > 220 µM | 6.4 µM | 35 µM | 27.2 µM |
| O=C(NCCCNCCCCNCCCNC(=O)C(=O)c1c[nH]c2ccccc12)C(=O)c1c[nH]c2ccccc12 [Compound 2] | >100 ^h µM | – | >100 ^h µM | >41 µM | 41.4 µM (≈ 22.5 µg/mL) | >41.4 ^h µM | > 41 µM | >100 ^h µM | – | – | – | – | – | – |
| O=C(NCCCNCCCCCCCCCCNCCCNC(=O)C(=O)c1c[nH]c2c(F)cccc12)C(=O)c1c[nH]c2c(F)cccc12.O=C(O)C(F)(F)F.O=C(O)C(F)(F)F [Compound 21d, N^1,N^10-Bis(3-(2-(7-fluoro-1H-indol-3-yl)-2-oxoacetamido)propyl)decane-1,10-diaminium 2,2,2-trifluoroacetate] | – | – | – | >36 µM | 4.48 µM | – | – | – | 100 µM | 6.25 µM | > 200 µM | 4.7 µM | 36 µM | 3.12 µM |
| O=C(NCCCNCCCCCCCNCCCNC(=O)C(=O)c1c[nH]c2ccccc12)C(=O)c1c[nH]c2ccccc12.O=C(O)C(F)(F)F.O=C(O)C(F)(F)F [Compound 17b, N^1,N^7-Bis(3-(2-(1H-indol-3-yl)-2-oxoacetamido)propyl)heptane-1,7-diaminium 2,2,2-trifluoroacetate] | – | – | – | >39 µM | 39 µM | – | – | – | 100 µM | 25 µM | > 200 µM | 31 µM | > 39 µM | 25 µM |
